Laboratory results taken from US5147878A, “Aminoalkoxyphenyl derivatives, process of preparation and compositions containing the same” (Sanofi, priority 1986, dated 1992).
Where “and” joins values, the source holds several entries; their conditions need not be identical. Equal values may be shown once. Where a name gives a salt, the structure may show the parent alone.

What was measured:
[1] = Acute toxicity, intravenous, Litchfield and Wilcoxon; conditions: mouse, in vivo, mice
Protocol: The acute toxicity of the compounds of the invention was determined intravenously in mice according to the method of Litchfield and Wilcoxon (J. Pharm. Exp. Therap. […], 96, 99).
The following results were obtained, expressed in the form of the LD50, compared with a benzoylindolizine derivative, in this case 2-ethyl-3-{4-[3-(di-n-butylamino)propyloxy]benzoyl}indolizine or butoprozine.

isolated rat aorta = test: Calcium inhibitory properties: contractile response to potassium-induced depolarization on isolated rat aorta; set-up: species or system isolated organ, male Wistar rats; conditions: for activity at 1 µM: 10^-6 M; for activity at 0.001 µM: 10^-9 M; for % of the maximum contractional effect: 60 min
How it was run: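 Contraction is expressed as % of the pre-incubation maximum, measured after a 60 min compound exposure and a fresh K+ (100 mM KCl) depolarization. Tissue: aortic strips from male Wistar rats, 2 g tension, modified Krebs-bicarbonate, 37° C, CO2/O2 gassed.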

[2] = tested on: epinephrine-induced increase in blood-pressure (anti-α effect); test: Antiadrenergic properties: anti-α effect (reduction of epinephrine-induced hypertension); assay type: in vivo; set-up: key to anti-α effect: +: for a reduction < 50%; ++: for a reduction ≥ 50%; +++: for a reduction sub-total (almost complete reduction); conditions: dog; for inhibition in vivo at 1 mg/kg: 1 mg/kg i.v.
How it was run: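 Pentobarbital-anaesthetised, atropinised dogs given an epinephrine dose of 3–10 μg/kg, titrated per animal to raise blood pressure about 133×10^2 Pa. After two reference responses, test compound given intravenously. Result is % reduction of epinephrine-induced hypertension versus reference.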

[3] = tested on: isoprenaline-induced acceleration in heart rate (anti-β effect); test: Antiadrenergic properties: anti-β effect (reduction of isoprenaline-induced tachycardia); assay type: in vivo; set-up: key to anti-β effect: +: for a reduction < 50%; ++: for a reduction ≥ 50%; +++: for a reduction sub-total (almost complete reduction); conditions: dog; for inhibition in vivo at 1 mg/kg: 1 mg/kg i.v.; for inhibition in vivo at 3 mg/kg: 3 mg/kg i.v.
How it was run: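 Pentobarbital-anaesthetized, atropinized dogs given isoprenaline (1–2 μg/kg, dose set per dog for ~70 beats/min rise) alternating with epinephrine every 10 min. After two reference responses, compound given intravenously; % reduction in isoprenaline tachycardia versus reference recorded.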

[4] = Rattus norvegicus, 1 h, read-out: % of the maximum contractional effect
[5] = Rattus norvegicus, 1 h, 10^-7 M, read-out: % of the maximum contractional effect
[6] = Canis lupus familiaris, iv, 5 mg/kg i.v.
[7] = Rattus norvegicus, 1 h, 10^-8 M, read-out: % of the maximum contractional effect
[8] = Canis lupus familiaris, iv, 0.52 mg/kg i.v.
[9] = Canis lupus familiaris, iv, 0.027 mg/kg i.v.

| Structure (SMILES) | LD50 [1] [mg/kg] | activity at 1 µM (isolated rat aorta; [4]) [%] | activity at 0.1 µM (isolated rat aorta; [5]) [%] | activity at 0.01 µM (isolated rat aorta; [7]) [%] | activity at 0.001 µM (isolated rat aorta; [4]) [%] | further results |
| --- | --- | --- | --- | --- | --- | --- |
| CCCCN(CCCC)CCCOc1ccc(C(=O)c2c(CC)cc3ccccn23)cc1 [Butoprozine, 2-ethyl-3-{4-[3-(di-n-butylamino)propyloxy]benzoyl}indolizine, reference compound] | 23 |  |  |  |  |  |
| CCCCN(CCCC)CCCOc1ccc(S(=O)(=O)c2c(C)cn3ccccc23)cc1.O=C(O)C(=O)O [Ex. 6, 2-Methyl-1-{4-[3-(di-n-butylamino)propyloxy]benzenesulphonyl}indolizine oxalate] | 31 | 13.9 | 69.1 |  |  |  |
| CCCN(CCC)CCCOc1ccc(S(=O)(=O)c2c(CC)cn3ccccc23)cc1.Cl [Ex. 7, 2-Ethyl-1-{4-[3-(di-n-propylamino)propyloxy]benzenesulphonyl}indolizine hydrochloride] | 26 | 8.3 | 60 |  |  | Activity ratio (isolated rat aorta; compound / Compound E): 6.0; anti-α effect ([2]; 5 mg/kg i.v.): +++; anti-β effect ([3]; 5 mg/kg i.v.): +++ |
| CCCCN(CCCC)CCCOc1ccc(S(=O)(=O)c2c(CC)cn3ccccc23)cc1C.Cl [Ex. 9, 2-Ethyl-1-{4-[3-(di-n-butylamino)propyloxy]-3-methylbenzenesulphonyl}indolizine hydrochloride] | 55 | 17.4 | 57.2 |  |  | inhibition in vivo at 1 mg/kg ([2]; Canis lupus familiaris, iv): ≥ 50%; inhibition in vivo at 1 mg/kg ([3]; Canis lupus familiaris, iv): ≥ 50% |
| CCCCN(CCCC)CCCOc1ccc(S(=O)(=O)c2c(CCC)cn3ccccc23)cc1.O=C(O)C(=O)O [Ex. 11, 2-n-Propyl-1-{4-[3-(di-n-butylamino)propyloxy]benzenesulphonyl}indolizine oxalate] | 28 | 8.8 | 37.7 |  |  | inhibition in vivo at 1 mg/kg ([2]; Canis lupus familiaris, iv): ≥ 50%; inhibition in vivo at 1 mg/kg ([3]; Canis lupus familiaris, iv): ≥ 50% |
| CCCCc1cn2ccccc2c1S(=O)(=O)c1ccc(OCCCN(CCCC)CCCC)cc1.O=C(O)C(=O)O [Ex. 13, 2-n-Butyl-1-{4-[3-(di-n-butylamino)propyloxy]benzenesulphonyl}indolizine oxalate] | 31 | 39.8 |  |  |  | Activity ratio (isolated rat aorta; compound / Compound C): 2.0; inhibition in vivo at 5 mg/kg [2, 6]: ≥ 50%; inhibition in vivo at 5 mg/kg [3, 6]: ≥ 50% |
| CCCCN(CCCC)CCCOc1ccc(S(=O)(=O)c2c(-c3ccccc3)cn3ccccc23)cc1.Cl [Ex. 18, 2-Phenyl-1-{4-[3-(di-n-butylamino)propyloxy]benzenesulphonyl}indolizine hydrochloride] | 35 | 55.6 |  |  |  |  |
| CCCCN(CCCC)CCCOc1ccc(S(=O)(=O)c2c(-c3ccccc3)cn3ccccc23)cc1C.Cl [Ex. 19, 2-Phenyl-1-{4-[3-(di-n-butylamino)propyloxy]-3-methylbenzenesulphonyl}indolizine hydrochloride] | 60 | 77.2 |  |  |  |  |
| CCc1cn2ccccc2c1S(=O)(=O)c1ccc(OCCCN(C)CCc2ccc(OC)c(OC)c2)cc1 [Ex. 28, 2-Ethyl-1-[4-{3-[N-methyl-N-(3,4-dimethoxy-β-phenethyl)-amino]propyloxy}benzenesulphonyl]indolizine] | 32 |  | 14.2 | 60.2 | 85.4 | anti-α effect ([2]; 0.1 mg/kg i.v.): +++; inhibition in vivo at 0.1 mg/kg ([3]; Canis lupus familiaris, iv, 0.1 mg/kg i.v.): ≥ 50% |
| COc1ccc(CCN(C)CCCOc2ccc(S(=O)(=O)c3c(C(C)C)cn4ccccc34)cc2)cc1OC [Ex. 30, 2-Isopropyl-1-[4-{3-[N-methyl-N-(3,4-dimethoxy-β-phenethyl)amino]propyloxy}benzenesulphonyl]indolizine] | 140 |  | 9.4 | 40.1 | 81.7 | anti-α effect ([2]; 0.1 mg/kg i.v.): +++; anti-β effect ([3]; 0.1 mg/kg i.v.): +++ |
| CC(C)c1nn2ccccc2c1S(=O)(=O)c1ccc(OCCCNC(C)(C)C)cc1 [Ex. 72, 2-isopropyl-3-{4-[3-(tertiobutylamino)propyloxy]benzenesulphonyl}pyrazolo[1,5-a]pyridine oxalate] |  | 13.2 | 66.5 | 84 |  | inhibition in vivo at 0.52 mg/kg [2, 8]: ≥ 50%; inhibition in vivo at 0.52 mg/kg [3, 8]: < 50% |
| COc1ccc(CCN(C)CCCOc2ccc(S(=O)(=O)C3=C(C(C)C)OCC3)cc2)cc1OC [Ex. 73, 2-isopropyl-3-[4-{3-[N-methyl-N-(3,4-dimethoxy-β-phenethyl)amino]propyloxy}benzenesulphonyl]-4,5-dihydro-furan oxalate] |  | 8.2 | 66.7 | 78.3 |  | anti-α effect ([2]; 3 mg/kg i.v.): +++; inhibition in vivo at 3 mg/kg ([3]; Canis lupus familiaris, iv): ≥ 50% |
| CCCCN(CCCC)CCCOc1ccc(S(=O)(=O)c2cc3ccccc3nc2C(C)C)cc1.O=C(O)C(=O)O [Ex. 74, 2-isopropyl-3-{4-[3-(di-n-butylamino)propyloxy]benzenesulphonyl}quinoline oxalate] |  | 22.4 | 67.3 |  |  | anti-α effect ([2]; 1.2 mg/kg i.v.): +++; inhibition in vivo at 1.2 mg/kg ([3]; Canis lupus familiaris, iv, 1.2 mg/kg i.v.): < 50% |
| COc1ccc(CCN(C)CCCOc2ccc(S(=O)(=O)c3cc4ccccc4nc3C(C)C)cc2)cc1OC [Ex. 75, 2-isopropyl-3-[4-{3-[N-methyl-N-(3,4-dimethoxy-β-phenethyl)amino]propyloxy}benzenesulphonyl]quinoline oxalate] |  |  |  | 89.7 |  | % of the maximum contractional effect (isolated rat aorta; 10^-7 M, 0.1 µM): 54% and 79.6%; anti-α effect ([2]; 1.3 mg/kg i.v.): +++; inhibition in vivo at 1.3 mg/kg ([3]; Canis lupus familiaris, iv, 1.3 mg/kg i.v.): < 50% |
| COc1ccc(CCN(C)CCCOc2ccc(S(=O)(=O)c3c(C(C)C)cn4ncccc34)cc2)cc1OC [Ex. 76, 5-[4-{3-[N-methyl-N-(3,4-dimethoxy-β-phenethyl)amino]propyloxy}benzenesulphonyl]-6-isopropyl-pyrrolo[1,2-b]pyridazine oxalate] |  |  | 0 | 18.1 | 68.1 | anti-α effect ([2]; 0.13 mg/kg i.v.): +++; inhibition in vivo at 0.13 mg/kg ([3]; Canis lupus familiaris, iv, 0.13 mg/kg i.v.): < 50% |
| COc1ccc(CCN(C)CCCOc2ccc(S(=O)(=O)c3ccoc3C(C)C)cc2)cc1OC [Ex. 77, 2-isopropyl-3-[4-{3-[N-methyl-N-(3,4-dimethoxy-β-phenethyl)amino]propyloxy}benzenesulphonyl]furan oxalate] |  |  | 43.2 | 86 | 89.8 | anti-α effect ([2]; 3 mg/kg i.v.): +++; inhibition in vivo at 3 mg/kg ([3]; Canis lupus familiaris, iv): ≥ 50% |
| COc1cc(CCNCCCOc2ccc(S(=O)(=O)c3c(C(C)C)cn4ccccc34)cc2)cc(OC)c1 [Ex. 133, 1-[4-{3-[N-(3,5-dimethoxy-β-phenethyl)amino]propyloxy}benzenesulphonyl]-2-isopropyl-indolizine acid oxalate] |  |  | 6.2 | 30.5 | 73.4 | % of the maximum contractional effect (isolated rat aorta; 10^-8 M, 0.01 µM): 30.3%; inhibition in vivo at 0.027 mg/kg [2, 9]: ≥ 50%; inhibition in vivo at 0.027 mg/kg [3, 9]: < 50% |
| COc1cc(CCN(C)CCCOc2ccc(S(=O)(=O)c3c(C(C)C)cn4ccccc34)cc2)cc(OC)c1 [Ex. 145, 2-isopropyl-1[4-{3-[N-methyl-N-(3,5-dimethoxy-β-phenethyl)amino]propyloxy}benzenesulphonyl]indolizine acid oxalate] |  |  |  | 21 | 57.7 | activity at 0.0001 µM (isolated rat aorta; Rattus norvegicus, 1 h, 10^-10 M, read-out: % of the maximum contractional effect): 81%; anti-α effect ([2]; 0.033 mg/kg i.v.): +++; inhibition in vivo at 0.033 mg/kg ([3]; Canis lupus familiaris, iv, 0.033 mg/kg i.v.): ≥ 50% |
